The structures appear in SMILES notation.

For this assay, the target named is T1, human OX2R (Homo sapiens, UniProt O43614).
T1 construct: expressed in transfected cells; host or cells: CHO (Chinese hamster ovary) cells, grown under G418 selection
T1 sequence (O43614 1-444): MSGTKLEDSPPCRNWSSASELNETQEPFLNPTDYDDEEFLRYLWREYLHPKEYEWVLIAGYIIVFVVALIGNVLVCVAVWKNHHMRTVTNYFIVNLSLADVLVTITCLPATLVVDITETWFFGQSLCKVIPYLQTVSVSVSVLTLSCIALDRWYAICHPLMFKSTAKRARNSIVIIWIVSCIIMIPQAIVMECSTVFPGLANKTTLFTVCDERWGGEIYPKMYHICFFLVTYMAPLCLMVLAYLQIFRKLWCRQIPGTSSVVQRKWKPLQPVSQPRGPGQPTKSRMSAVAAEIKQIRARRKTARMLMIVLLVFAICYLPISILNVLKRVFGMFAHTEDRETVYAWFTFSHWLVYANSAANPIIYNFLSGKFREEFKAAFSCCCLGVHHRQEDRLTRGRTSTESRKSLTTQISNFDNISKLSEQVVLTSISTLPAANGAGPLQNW
The assay is described as follows: IPOne (IP-1) orexin receptor agonist assay in CHO cells expressing human OX2R. The following applies: IPOne assay, CHO cells expressing human OX2R, 2 hours incubation; read-out: hoX2R_IP IC50. Format: cell-based. From the text:
The utility of the compounds in accordance with the present invention as orexin receptor OX1R and/or OX2R agonists may be readily determined without undue experimentation by methodology well known in the art. Both the OX1R and/or OX2R G-coupled protein receptors (GPCRs) couple through the Gaq signaling pathway, which ultimately promotes calcium mobilization via inositol triphosphate (IP3) production. The half-life of IP-3 is relatively short, being rapidly metabolized to inositol monophosphate (IP-1), which can be readily detected using a commercially available assay kit (IP-One; Cisbio; cat #621PAPEC) coupled with a cell line expressing the target receptor(s) of interest. The utility of the compounds in accordance with the present invention as orexin receptor OX1R and/or OX2R agonists may be determined utilizing this assay.
In a typical experiment, the OX1 and OX2 receptor agonist activity is determined in accordance with the following general experimental method. Chinese hamster ovary (CHO) cells expressing human OX1R and/or the human OX2R were grown in Iscove's modified DMEM containing glutaMAX™, 1% G418, 100 U/mL penicillin, 100 μg/mL streptomycin and 10% heat-inactivated qualified fetal bovine serum (FBS). The OX2R cells were seeded at 10,000 cells/well/50 μL and the OX1R cells were seeded at 20,000 cells/well/50 μL into 384-well white tissue culture plates (Greiner; cat #781080). All cell/media reagents were from GIBCO-Invitrogen Corp. The seeded cell plate(s) were incubated at 37° C. with 5% CO2 and 85% humidity for 20-24 hours. On the day of the assay, assay-ready compound plates were prepared using an acoustic liquid handler (ECHO; Labcyte), which dispensed sufficient volume of test compound stock (10 mM in DMSO) or 100% DMSO to prepare 10 point, ½-log dilutions in a final volume of 202.5 nL/well in all test wells of a 384-well diamond plate (Labcyte). Following completion of assay-ready plates, importantly, the next three steps were performed with minimal delay: 1) 20 μl of 1×stimulation buffer was added to the compound plate using a Multidrop Combi (small cassette, Thermo Fisher Scientific cat #24073290); 2) culture medium was removed from the cell plate using the Bluewasher plate washer (gentle spin; BlueCatBio); 3) 14 μl of compound/stimulation buffer mixture was added to the cell plate using a Bravo liquid handler (Agilent) prior to incubating cell plates at 37° C. with 5% CO2 and 85% humidity for 1 or 2 hours (OX1R and OX2R, respectively). During this incubation, IP-one detection reagents were prepared (38:1:1 lysis buffer:D2:AB-cryptate reagents). Six μL of mixed detection reagents were added to the cell plate using a Multidrop Combi (small cassette, Thermo Fisher Scientific cat #24073290) and incubated 60 minutes at room temperature in the dark. Fluorescence signal was detected using an Envision plate reader (Perkin Elmer) [LANCE/DELFIA Dual Enh (Em: APC 665; Ex: Cy5 620)].
For each compound, data were fit to a four parameter logistic fit (ActivityBase software) and the EC50 was reported as the inflection point of the resulting curve. Percent effect for each test compound was determined as the percentage of sample raw value/mean max effect, where the mean max effect was derived from the mean raw value of 32 control wells per assay plate (using Orexin A (cat #003-30) at 1 μM for human OX1R and a reference compound at 1 uM with 100% activity previously established by comparison to Orexin A for human OX2R). The intrinsic orexin receptor agonist activity of a compound which may be used in the present invention may be determined by these assays.
On to `COC(=O)N1[C@H](C)C[C@H](NS(=O)(=O)N(C)C)[C@@H]1COC1CCC2(c3cnccn3)CC2C1` (stereo partly drawn) [Example 13, methyl (2R,3S,5R)-3-((N,N-dimethylsulfamoyl)amino)-5-methyl-2-(((6-(pyrazin-2-yl)bicyclo[4.1.0]heptan-3-yl)oxy)methyl)pyrrolidine-1-carboxylate], for which the half-maximal inhibitory concentration (IC50) worked out at 461 nM.

With `COC(=O)N1[C@H](C)C[C@H](NS(=O)(=O)C(F)(F)F)[C@@H]1CO[C@H]1CC[C@@]2(c3ncc(F)cn3)C[C@H]2C1` [Example 31, methyl (2R,3S,5R)-2-((((1S,3S,6R)-6-(5-fluoropyrimidin-2-yl)bicyclo[4.1.0]heptan-3-yl)oxy)methyl)-5-methyl-3-((trifluoromethyl)sulfonamido)pyrrolidine-1-carboxylate], the IC50 was found to be 3 nM.

Turning to `CCCS(=O)(=O)N[C@H]1C[C@@H](C)N(C(=O)OC)[C@H]1CO[C@H]1CC[C@@]2(c3ncc(F)cn3)C[C@H]2C1` [Example 33, methyl (2R,3S,5R)-2-((((1S,3S,6R)-6-(5-fluoropyrimidin-2-yl)bicyclo[4.1.0]heptan-3-yl)oxy)methyl)-5-methyl-3-(propylsulfonamido)pyrrolidine-1-carboxylate], the IC50 came out at 5.4 nM. For `COC(=O)N1[C@H](C)C[C@H](NS(=O)(=O)Cc2ccccc2)[C@@H]1CO[C@H]1CC[C@@]2(c3ncc(F)cn3)C[C@H]2C1` [Example 34, methyl (2R,3S,5R)-2-((((1S,3S,6R)-6-(5-fluoropyrimidin-2-yl)bicyclo[4.1.0]heptan-3-yl)oxy)methyl)-5-methyl-3-((phenylmethyl)sulfonamido)pyrrolidine-1-carboxylate], the IC50 came out at 34.4 nM. As for `COC(=O)N1[C@H](C)C[C@H](NS(=O)(=O)CC(C)C)[C@@H]1CO[C@H]1CC[C@@]2(c3ncc(F)cn3)C[C@H]2C1` [Example 35, methyl (2R,3S,5R)-2-((((1S,3S,6R)-6-(5-fluoropyrimidin-2-yl)bicyclo[4.1.0]heptan-3-yl)oxy)methyl)-5-methyl-3-((2-methylpropyl)sulfonamido)pyrrolidine-1-carboxylate], the IC50 was 46.5 nM. Then `CCS(=O)(=O)N[C@H]1C[C@@H](C)N(C(=O)OC)[C@H]1CO[C@H]1CC[C@@]2(c3ncc(F)cn3)C[C@H]2C1` [Example 36, methyl (2R,3S,5R)-3-(ethylsulfonamido)-2-((((1S,3S,6R)-6-(5-fluoropyrimidin-2-yl)bicyclo[4.1.0]heptan-3-yl)oxy)methyl)-5-methylpyrrolidine-1-carboxylate], with 0.93 nM; and `COC(=O)N1[C@H](C)C[C@H](NS(=O)(=O)CCl)[C@@H]1CO[C@H]1CC[C@@]2(c3ncc(F)cn3)C[C@H]2C1` [Example 37, methyl (2R,3S,5R)-3-((chloromethyl)sulfonamido)-2-((((1S,3S,6R)-6-(5-fluoropyrimidin-2-yl)bicyclo[4.1.0]heptan-3-yl)oxy)methyl)-5-methylpyrrolidine-1-carboxylate], with 2.1 nM. Then `COC(=O)N1[C@H](C)C[C@H](NS(=O)(=O)C(C)C)[C@@H]1CO[C@H]1CC[C@@]2(c3ncc(F)cn3)C[C@H]2C1` [Example 38, methyl (2R,3S,5R)-2-((((1S,3S,6R)-6-(5-fluoropyrimidin-2-yl)bicyclo[4.1.0]heptan-3-yl)oxy)methyl)-5-methyl-3-((1-methylethyl)sulfonamido)pyrrolidine-1-carboxylate], with 0.9 nM.

Consider `COC(=O)N1[C@H](C)C[C@H](NS(=O)(=O)N2CCC2)[C@@H]1CO[C@H]1CC[C@@]2(c3ncc(F)cn3)C[C@H]2C1` [Example 39, methyl (2R,3S,5R)-3-(azetidine-1-sulfonamido)-2-((((1S,3S,6R)-6-(5-fluoropyrimidin-2-yl)bicyclo[4.1.0]heptan-3-yl)oxy)methyl)-5-methylpyrrolidine-1-carboxylate], for which the IC50 worked out at 2 nM.

A word on the IC50: it is the midpoint of a concentration-inhibition curve.

The values are drawn from patent US20230365533A1, “BICYCLOHEPTANE PYRROLIDINE OREXIN RECEPTOR AGONISTS” (MERCK SHARP & DOHME CORP., priority 2021, published 2023).
